Source: US20210154317A1, “COMPOSITIONS AND METHODS FOR THE TREATMENT OF VIRAL INFECTIONS” (Silverback Therapeutics, Inc., priority 2017, published 2021)

Test system: monax PBMC
Assay: Marmota TNFα expression in stimulated PBMC by real time PCR
Type: cell-based
Conditions: TaqMan real time PCR
Protocol: Total RNA was extracted from stimulated monax PBMC using the RNeasy®Mini kit (Qiagen, Maryland, MD) according to the manufacturer's protocol. Briefly, cells were pelleted and resuspended in 600 ul RLT buffer. The sample was vortexed and then run through a QIAshredder column. RNA was extracted from the supernatant and eluted with a 30 uL volume. RNA purity was assessed (A260/A280) using a Nanodrop one spectrophotometer (Thermofisher Scientific, Waltham, Mass., USA). For removal of genomic DNA, 800 ng RNA was incubated with 2 units DNase I (RNase-free) (New England Biolabs, Ipswich, Mass., USA) in DNase reaction buffer at 37° C. for 10 min. […]
The generation of oligonucleotide dimers for each TaqMan primer pair was assessed using Power SYBR®Green PCR Master-Mix (Foster City, Calif., Applied Biosystems) with melting curve analysis, according to the manufacturer's instructions. […] Data were analyzed using the Step One Software to generate Ct value for each sample.
A plot of Ct versus log copy number standard curve was generated using synthesized monax TNFα cDNA standard. The Ct value for each data point was then determined and normalized to the standard curve to obtain the copy number. […]

SMILES | monax TNFα gene activation (copy number per ng of mRNA)
CCOCc1nc2c(N)nc3ccccc3c2n1CC(C)(C)OCCNC(=O)C(C)(C)N | potent activation
CCCN(CCC)C(=O)C1=Cc2ccc(C(=O)Nc3cnc4c(c3)CNCC4)cc2N=C(N)C1 [Compound 1.50, 2-amino-N^4,N^4-dipropyl-N^8-(5,6,7,8-tetrahydro-1,6-naphthyridin-3-yl)-3H-benzo[b]azepine-4,8-dicarboxamide] | potent activation
